We go through seven compounds from patent US9663463B2, “3-azabicyclo[3.1.0]hexane derivative and use thereof for medical purpose” (priority 2013, dated 2017).

One series is described as follows: in vitro. The note with it: Crl:CD-1 (ICR), mouse, pH 7.4; murine serum, equilibrium dialysis, 37° C., 5 to 6 hours; read-out: Protein binding rate (converted). The series is classed as in vitro ADME, mice. (In equilibrium dialysis only unbound substance equilibrates across the membrane.)
Series [1] can be described thus: Plasma concentration of test substance at ED50 value (mice, LC/MS/MS). The note with it: at the ED50 value, at time of morphine administration, oral, linear regression from two doses. The series is classed as in vivo.
The target of a further series is hERG (Homo sapiens (Human), UniProt Q12809). In words: Safety margin against hERG inhibitory activity. The note with it: hERG IC50×1000/{concentration in plasma at ED50×(1−protein binding rate/100)}. On the procedure:
In order to compare the risks of extension of QT interval prolongation in the electrocardiogram among the test substances, the safety margins against the hERG inhibitory effect were calculated. […] Therefore, the following formula was used for calculating the safety margin, and the obtained values were described in Table 7. Safety margin against hERG inhibitory effect=IC50×1000/{concentration in plasma×(1−protein binding rate/100)}
IC50: the IC50 value in a hERG inhibition assay (μM)
Plasma concentration: the plasma concentration of test substance (nM) at the ED50 value in the test for evaluating the anti-pruritic effect in the morphine model
Protein binding rate: the protein binding rate (%) in the protein binding assay in murine serum
(hERG is a cardiac potassium channel; its block is linked to QT prolongation.)

A further series addresses hERG current (Homo sapiens (Human), UniProt Q12809). In words: cell-based. The text has this:
A: the suppression rate (%) of the test substance in each cell
B: the average suppression rate (%) of the vehicle control group

Another series has as its target human μ-opioid receptor (Homo sapiens (Human), UniProt P35372). In words: Antagonist activity test using [35S]-GTPγS bond as index using human μ-opioid receptor-expressing cell membrane. The series is classed as biochemical. In general terms: GTPγS resists hydrolysis and so accumulates on activated G proteins.

Counter-ions that a name gives are not always drawn.

By IC50 is commonly meant the concentration needed to halve the response being measured. Higher therefore signals lower potency.

Chain of hERG current (Q12809 whole entry): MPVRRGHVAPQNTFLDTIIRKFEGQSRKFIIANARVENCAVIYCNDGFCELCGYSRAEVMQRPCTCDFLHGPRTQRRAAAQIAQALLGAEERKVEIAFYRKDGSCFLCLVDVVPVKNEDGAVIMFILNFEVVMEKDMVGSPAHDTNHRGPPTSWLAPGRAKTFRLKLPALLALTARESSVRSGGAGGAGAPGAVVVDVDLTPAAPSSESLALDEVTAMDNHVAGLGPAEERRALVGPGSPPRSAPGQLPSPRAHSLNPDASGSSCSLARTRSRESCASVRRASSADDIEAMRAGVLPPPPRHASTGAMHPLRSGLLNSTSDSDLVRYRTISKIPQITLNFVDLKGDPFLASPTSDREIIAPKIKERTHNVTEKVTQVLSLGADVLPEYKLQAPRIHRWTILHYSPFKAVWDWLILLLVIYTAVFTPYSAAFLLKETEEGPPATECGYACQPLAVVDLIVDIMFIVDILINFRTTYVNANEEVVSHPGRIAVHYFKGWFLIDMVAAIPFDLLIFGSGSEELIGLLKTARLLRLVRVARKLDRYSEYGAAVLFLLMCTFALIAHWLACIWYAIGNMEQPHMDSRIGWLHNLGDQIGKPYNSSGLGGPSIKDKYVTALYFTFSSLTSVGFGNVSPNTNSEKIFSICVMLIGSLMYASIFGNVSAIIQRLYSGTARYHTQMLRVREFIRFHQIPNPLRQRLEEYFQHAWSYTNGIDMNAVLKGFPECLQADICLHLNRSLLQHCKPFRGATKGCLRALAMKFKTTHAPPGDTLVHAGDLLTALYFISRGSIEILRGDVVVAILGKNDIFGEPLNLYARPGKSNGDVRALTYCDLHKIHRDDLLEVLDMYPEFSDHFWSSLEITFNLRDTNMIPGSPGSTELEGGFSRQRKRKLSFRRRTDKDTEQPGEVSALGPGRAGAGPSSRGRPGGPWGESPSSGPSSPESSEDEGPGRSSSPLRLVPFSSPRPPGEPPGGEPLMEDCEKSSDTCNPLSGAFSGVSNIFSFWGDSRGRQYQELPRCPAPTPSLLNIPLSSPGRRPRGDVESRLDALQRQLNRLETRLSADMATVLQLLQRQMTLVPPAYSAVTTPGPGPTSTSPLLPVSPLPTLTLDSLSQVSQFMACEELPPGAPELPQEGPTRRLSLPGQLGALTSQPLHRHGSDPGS

For the compound `CC[C@]1(c2cc(NS(=O)(=O)C3CC3)ccc2F)[C@@H]2CN(CC3(O)Cc4ccccc4C3)C[C@@H]21` [Example 2-(b), N-(3-{(1R,5S,6r)-6-ethyl-3-[(2-hydroxy-2,3-dihydro-1H-inden-2-yl)methyl]-3-azabicyclo[3.1.0]hexan-6-yl}-4-fluorophenyl)cyclopropanesulfonamide hydrochloride], in “in vitro”, the fraction unbound was 0.006. Also, in series [1], the “Plasma concentration of test substance” value is 21.4 nM. The compound further came in with a Safety margin on hERG of 1250. Also, the IC50 is 160 nM at hERG current and 2 nM against human μ-opioid receptor.
The matching figures for `CC[C@]1(c2cccc(NS(=O)(=O)C3CC3)c2)[C@@H]2CN(CCCC3CCC(F)(F)CC3)C[C@@H]21` [Example 4-(b), N-(3-{(1R,5S,6r)-3-[3-(4,4-difluorocyclohexyl)propyl]-6-ethyl-3-azabicyclo[3.1.0]hexan-6-yl}phenyl)cyclopropanesulfonamide hydrochloride]: 0.019, 31.6 nM, 157, 94 nM and 1.5 nM.
In the case of `CC[C@]1(c2cc(NS(=O)(=O)C3CC3)ccc2F)[C@@H]2CN(CCCC3CCC(F)(F)CC3)C[C@@H]21` [Example 5-(b), N-(3-{(1R,5S,6r)-3-[3-(4,4-difluorocyclohexyl)propyl]-6-ethyl-3-azabicyclo[3.1.0]hexan-6-yl}-4-fluorophenyl)cyclopropanesulfonamide hydrochloride], the fraction unbound in “in vitro” is 0.005. For the same compound, the “Plasma concentration of test substance” value in series [1] amounted to 116 nM. The Safety margin on hERG was 153. The IC50 was 89 nM against hERG current and 1.6 nM on human μ-opioid receptor.
`CC[C@]1(c2cccc(NS(=O)(=O)C3CC3)c2)[C@@H]2CN(CCCN3CCC(F)(F)C3)C[C@@H]21` [Example 8-(b), N-(3-{(1R,5S,6r)-3-[3-(3,3-difluoropyrrolidin-1-yl)propyl]-6-ethyl-3-azabicyclo[3.1.0]hexan-6-yl}phenyl)cyclopropanesulfonamide hydrochloride]: the fraction unbound in “in vitro” was 0.316. Further, the “Plasma concentration of test substance” value in series [1] is reported as 10.9 nM. At hERG, this compound registered a Safety margin of 99. The IC50 at hERG current was found to be 340 nM; against human μ-opioid receptor, 2.9 nM.
The matching figures for `CC[C@]1(c2cc(F)cc(NS(=O)(=O)C3CC3)c2)[C@@H]2CN(CC3(O)Cc4ccccc4C3)C[C@@H]21` [Example 10-(b), N-(3-{(1R,5S,6r)-6-ethyl-3-[(2-hydroxy-2,3-dihydro-1H-inden-2-yl)methyl]-3-azabicyclo[3.1.0]hexan-6-yl}-5-fluorophenyl)cyclopropanesulfonamide hydrochloride]: 0.102, 129 nM, 5, 62 nM and 3.2 nM.
As to `CC[C@]1(c2cc(NS(=O)(=O)C3CC3)ccc2F)[C@@H]2CN(CCCN3CCC(F)(F)CC3)C[C@@H]21` [Example 15-(b), N-(3-{(1R,5S,6r)-3-[3-(4,4-difluoropiperidin-1-yl)propyl]-6-ethyl-3-azabicyclo[3.1.0]hexan-6-yl}-4-fluorophenyl)cyclopropanesulfonamide hydrochloride], in “in vitro”, the fraction unbound is 0.1. Besides, the “Plasma concentration of test substance” value in series [1] is listed as 71.5 nM. In addition, on hERG, the Safety margin worked out at 182. The results for the IC50 at hERG current and against human μ-opioid receptor were 1300 nM and 1.7 nM, respectively.
For `CC[C@]1(c2cccc(NS(=O)(=O)C3CC3)c2)[C@@H]2CN(CCCN3CCCC(F)(F)C3)C[C@@H]21` [Example 16-(b), N-(3-{(1R,5S,6r)-3-[3-(3,3-difluoropiperidin-1-yl)propyl]-6-ethyl-3-azabicyclo[3.1.0]hexan-6-yl}phenyl)cyclopropanesulfonamide hydrochloride], in that order: 0.246, 44.5 nM, 58, 640 nM and 3.1 nM.
